Assay type in all cases: in vivo
One test relates to Lolium perenne (LOLPE). In words: Post-emergence efficacy, Method A. Conditions: 500 g/Ha, 100=total damage to plant, 0=no damage, evaluated after 7 and 14 days, read-out: Control of weed species after post-emergence application, LOLPE.
The test system of another test is Brassica napus (BRSNN). In words: Post-emergence efficacy, Method B. The protocol:
(§1) Seeds of a variety of test species were sown in standard loam based soil in pots. Plants were cultivated from between 21 and 28 days (post-emergence) under controlled conditions in a glasshouse (at 24/16° C., day/night; 14 hours light; 65% humidity) for warm climate species and (at 20/16° C. day/night; 15 hours light; 65% humidity) for cool climate species.
(§2) The plants were sprayed with an aqueous spray solution derived from dissolving the technical active ingredient formula in a small amount of acetone and a special solvent and emulsifier mixture referred to as IF50 (11.12% Emulsogen EL360 TM+44.44% N-methylpyrrolidone+44.44% Dowanol DPM glycol ether), to create a 50 g/l solution which was then diluted to required concentration using 0.5% or 1% Empicol ESC70 (Sodium lauryl ether sulphate)+1% ammonium sulphate as diluent.
(§3) The delivery of the aqueous spray solution was via a laboratory track sprayer which delivered the aqueous spray composition at a rate of 200 litres per hectare, using a flat fan nozzle (Teejet 11002VS) and an application volume of 200 litre/ha (at 2 bar).
(§4) The test plants were then grown in a glasshouse under controlled conditions (at 24/16° C., day/night; 14 hours light; 65% humidity) for warm climate species and (at 20/16° C. day/night; 15 hours light; 65% humidity) for cool climate species and watered twice daily. After 7 and 14 days the test was evaluated (100=total damage to plant; 0=no damage to plant).
(§5) Brassica napus (BRSNN), Solanum turberosum (SOLTU), Glycine Max (GLXMA), and Helianthus annus (HELAN)

For test [1], the system named is Solanum turberosum (SOLTU). In words: Post-emergence efficacy, Method B. The protocol: as §1, §2, §3, §4, §5
The next test has as its system Helianthus annus (HELAN). Nature of the test: Post-emergence efficacy, Method B. Conditions: second set of rows of Table C (evaluated after 7 and 14 days, day not printed). The method, then: as §1, §2, §3, §4, §5
The next test relates to Glycine Max (GLXMA). Nature of the test: Post-emergence efficacy, Method B. The protocol: as §1, §2, §3, §4, §5
Test [2] relates to Echinochloa crus-galli (ECHCG). In words: Post-emergence efficacy, Method A. Conditions: 500 g/Ha, 100=total damage to plant, 0=no damage, evaluated after 7 and 14 days, read-out: Control of weed species after post-emergence application, ECHCG.
For test [3], the system named is Amaranthus palmeri (AMAPA). Nature of the test: Post-emergence efficacy, Method A. The conditions noted are these: 500 g/Ha, 100=total damage to plant, 0=no damage, evaluated after 7 and 14 days, read-out: Control of weed species after post-emergence application, AMAPA.
In test [4] the test system is Ipomoea hederacea (IPOHE). In words: Post-emergence efficacy, Method A. Conditions: 500 g/Ha, 100=total damage to plant, 0=no damage, evaluated after 7 and 14 days, read-out: Control of weed species after post-emergence application, IPOHE.
The test system of the next test is Setaria faberi (SETFA). In words: Post-emergence efficacy, Method A. The conditions noted are these: 500 g/Ha, 100=total damage to plant, 0=no damage, evaluated after 7 and 14 days, read-out: Control of weed species after post-emergence application, SETFA.
Test [5] has as its system Digitaria sanguinalis (DIGSA). In words: Post-emergence efficacy, Method A. Conditions: 500 g/Ha, 100=total damage to plant, 0=no damage, evaluated after 7 and 14 days, read-out: Control of weed species after post-emergence application, DIGSA.
The subject of test [6] is Chenopodium album (CHEAL). In words: Post-emergence efficacy, Method A. The conditions noted are these: 500 g/Ha, 100=total damage to plant, 0=no damage, evaluated after 7 and 14 days, read-out: Control of weed species after post-emergence application, CHEAL.
Test [7] concerns Euphorbia heterophylla (EPHHL). In words: Post-emergence efficacy, Method A. The conditions noted are these: 500 g/Ha, 100=total damage to plant, 0=no damage, evaluated after 7 and 14 days, read-out: Control of weed species after post-emergence application, EPHHL.
The subject of the next test is Eleusine indica (ELEIN). Nature of the test: Post-emergence efficacy, Method A. The conditions noted are these: 500 g/Ha, 100=total damage to plant, 0=no damage, evaluated after 7 and 14 days, read-out: Control of weed species after post-emergence application, ELEIN.
[8] abbreviates: 50 g/Ha, first set of rows of Table C (evaluated after 7 and 14 days, day not printed).
Setting [9] is: 50 g/Ha, second set of rows of Table C (evaluated after 7 and 14 days, day not printed).
Where [10] appears, read: 150 g/Ha, first set of rows of Table C (evaluated after 7 and 14 days, day not printed).
Setting [11] is: 150 g/Ha, second set of rows of Table C (evaluated after 7 and 14 days, day not printed).
Setting [12] is: 600 g/Ha, first set of rows of Table C (evaluated after 7 and 14 days, day not printed).
Setting [13] is: 600 g/Ha, second set of rows of Table C (evaluated after 7 and 14 days, day not printed).

On to `O=S(=O)([O-])C[n+]1ccc(-c2ncns2)cc1` [Compound A4, [4-(1,2,4-thiadiazol-5-yl)pyridin-1-ium-1-yl]methanesulfonate], for which the pest or weed control at 500 g/ha in the test on Lolium perenne (LOLPE) was found to be 80%; in [2] it was 70%; in [3], 100%; in [4], 100%; in the test on Setaria faberi (SETFA) it was 80%; in test [5] it was 70%. Moreover, the values for the pest or weed control at 500 g/ha (in [6]; in [7]; in the test with Eleusine indica (ELEIN)) were 100%, 100% and 80%, respectively. Besides, the “Control after post-emergence application, BRSNN (100=total damage to plant; 0=no damage to plant)” value with Brassica napus (BRSNN) (setting [8]) worked out at 23; in the test with Brassica napus (BRSNN) (setting [9]), 43; with Brassica napus (BRSNN) (setting [10]), 32; with Brassica napus (BRSNN) (setting [11]), 57; in the test on Brassica napus (BRSNN) (setting [12]), 43; in the test with Brassica napus (BRSNN) (setting [13]), 80. The “Control after post-emergence application, SOLTU (100=total damage to plant; 0=no damage to plant)” value in test [1] (setting [8]) was 15; in test [1] (setting [9]), 50; in [1] (setting [10]), 30; in test [1] (setting [11]), 60; in test [1] (setting [12]) it was 82; in test [1] (setting [13]), 67. Also, the “Control after post-emergence application, HELAN (100=total damage to plant; 0=no damage to plant)” value in the test on Helianthus annus (HELAN) (50 g/Ha) was found to be 97; with Helianthus annus (HELAN) (150 g/Ha), 100; in the test on Helianthus annus (HELAN) (600 g/Ha), 100. In addition, the “Control after post-emergence application, GLXMA (100=total damage to plant; 0=no damage to plant)” value in the test with Glycine Max (GLXMA) (setting [8]) came to 45; with Glycine Max (GLXMA) (setting [9]) it was 52; in the test on Glycine Max (GLXMA) (setting [10]) it was 83; with Glycine Max (GLXMA) (setting [11]) it was 62; with Glycine Max (GLXMA) (setting [12]), 93; with Glycine Max (GLXMA) (setting [13]), 85.

With `N#Cc1csc(-c2cc[n+](CCC(=O)O)cc2)n1` [Compound A88], the pest or weed control at 500 g/ha in the test with Lolium perenne (LOLPE) stood at 0%; in [2] it was 0%; in test [3] it was 10%; in test [4] it was 0%; in the test with Setaria faberi (SETFA), 0%; in test [5], 0%. Also, the pest or weed control at 500 g/ha in [6] came to 20%; in test [7], 90%; in the test with Eleusine indica (ELEIN) it was 0%.

`N#Cc1nsc(-c2cc[n+](CCC(=O)O)cc2)n1` [Compound A89]: the pest or weed control at 500 g/ha in the test on Lolium perenne (LOLPE) was determined as 10%; in test [2], 60%; in test [3], 30%; in [4] it was 10%; with Setaria faberi (SETFA), 80%; in [5], 90%. The pest or weed control at 500 g/ha in test [6] came to 30%; in test [7], 20%; in the test with Eleusine indica (ELEIN), 80%.

For the compound `Nc1nsc(-c2cc[n+](CCC(=O)O)cc2)n1` [Compound A92], the pest or weed control at 500 g/ha was found to be 10% in the test with Lolium perenne (LOLPE); 60% in test [2]; 100% in [3]; 20% in test [4]; 60% in the test with Setaria faberi (SETFA); 80% in [5]. The pest or weed control at 500 g/ha in test [6] worked out at 60%; in [7], 80%; in the test with Eleusine indica (ELEIN) it was 20%.

On to `Nc1nnc(-c2cc[n+](CC(=O)O)cc2)s1` [Compound A94], for which the pest or weed control at 500 g/ha with Lolium perenne (LOLPE) amounted to 10%; in test [2], 20%; in [3], 30%; in [4], 10%; with Setaria faberi (SETFA), 10%; in test [5], 30%. Also, the pest or weed control at 500 g/ha was 40% in test [6], 30% in test [7] and 40% with Eleusine indica (ELEIN).

For the compound `Cc1nnc(-c2cc[n+](CC(=O)O)cc2)s1` [Compound A95], the pest or weed control at 500 g/ha in the test on Lolium perenne (LOLPE) worked out at 0%; in test [2] it was 20%; in test [3], 40%; in [4] it was 10%; in the test with Setaria faberi (SETFA), 10%; in test [5], 10%. Besides, the pest or weed control at 500 g/ha in test [6] came out at 30%; in test [7], 10%; in the test with Eleusine indica (ELEIN), 60%.

Take `O=S(=O)([O-])C[n+]1ccc(-c2nc(Br)ns2)cc1` [Compound A96]: the pest or weed control at 500 g/ha in the test with Lolium perenne (LOLPE) is 100%; in test [2], 100%; in test [3], 100%; in test [4], 30%; in the test on Setaria faberi (SETFA), 80%; in test [5] it was 100%. In addition, the pest or weed control at 500 g/ha in test [6] is 100%; in test [7], 100%; in the test on Eleusine indica (ELEIN) it was 90%.

With `O=C(O)CC[n+]1ccc(-c2nc(O)ns2)cc1` [Compound A97, 3-[4-(3-hydroxy-1,2,4-thiadiazol-5-yl)pyridin-1-ium-1-yl]propanoic acid bromide], the pest or weed control at 500 g/ha with Lolium perenne (LOLPE) worked out at 10%; in test [2], 0%; in test [3], 0%; in test [4], 10%; in the test with Setaria faberi (SETFA), 10%; in test [5], 0%. The pest or weed control at 500 g/ha in test [6] came out at 50%; in test [7] it was 10%; with Eleusine indica (ELEIN), 10%.

In the case of `O=C(O)C[n+]1ccc(-c2nc(O)ns2)cc1` [Compound A98], the pest or weed control at 500 g/ha in the test on Lolium perenne (LOLPE) turned out to be 0%; in test [2], 40%; in test [3], 50%; in test [4] it was 10%; in the test with Setaria faberi (SETFA) it was 20%; in test [5] it was 70%. Moreover, the pest or weed control at 500 g/ha is 40% in test [6], 30% in [7] and 10% in the test with Eleusine indica (ELEIN).

(Values after US20220104493A1, “HERBICIDAL COMPOUNDS” (SYNGENTA CROP PROTECTION AG, priority 2019, published 2022).)
